Test results from US7759331B2, “Pyridine-containing macroheterococylic compounds as kinase inhibitors” (Janssen Pharmaceutica NV, priority 2006, dated 2010).

Legend:
Assay in all cases: Protein kinase selectivity panel
Format in all cases: biochemical
Conditions in all cases: 1.0 μM compound, 10 μM ATP
Tie2(h) = Tie2(h) (Homo sapiens, UniProt Q02763)
Procedure, shortened: (§1)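 Read-out is phosphorylation of the kinase's appropriate peptide/protein substrate, with and without 1.0 μM test compound. Assays used 10 μM ATP.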

CDK2/cyclinE(h) = CDK2/cyclinE(h) (Homo sapiens, UniProt P24941)
Procedure, shortened: as §1

MSK1(h) = MSK1(h) (Homo sapiens, UniProt O75582)
Procedure, shortened: as §1

c-RAF(h) = c-RAF(h) (Homo sapiens, UniProt P04049)
Procedure, shortened: as §1

SGK(h) = molecular target: T1, SGK(h) (Homo sapiens, UniProt O00141, S422D)
T1 sequence (O00141 60-431 S422D limits assumed): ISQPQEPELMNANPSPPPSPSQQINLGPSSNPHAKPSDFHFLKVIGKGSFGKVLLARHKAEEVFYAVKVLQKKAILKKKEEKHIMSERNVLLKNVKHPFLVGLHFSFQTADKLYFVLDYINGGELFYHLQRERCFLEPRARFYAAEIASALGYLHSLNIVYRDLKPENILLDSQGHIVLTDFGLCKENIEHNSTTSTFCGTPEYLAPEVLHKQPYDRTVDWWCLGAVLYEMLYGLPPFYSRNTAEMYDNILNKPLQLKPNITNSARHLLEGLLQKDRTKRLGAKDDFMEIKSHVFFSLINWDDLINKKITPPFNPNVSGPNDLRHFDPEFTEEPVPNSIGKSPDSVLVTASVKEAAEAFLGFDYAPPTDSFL
Procedure, shortened: as §1

Lck(h) = Lck(h) (Homo sapiens, UniProt P06239)
Procedure, shortened: as §1

PKCγ(h) = PKCγ(h) (Homo sapiens, UniProt P05129)
Procedure, shortened: as §1

MKK6(h) = molecular target: T2, MKK6(h) (Homo sapiens, UniProt P52564)
T2 sequence (P52564 1-334): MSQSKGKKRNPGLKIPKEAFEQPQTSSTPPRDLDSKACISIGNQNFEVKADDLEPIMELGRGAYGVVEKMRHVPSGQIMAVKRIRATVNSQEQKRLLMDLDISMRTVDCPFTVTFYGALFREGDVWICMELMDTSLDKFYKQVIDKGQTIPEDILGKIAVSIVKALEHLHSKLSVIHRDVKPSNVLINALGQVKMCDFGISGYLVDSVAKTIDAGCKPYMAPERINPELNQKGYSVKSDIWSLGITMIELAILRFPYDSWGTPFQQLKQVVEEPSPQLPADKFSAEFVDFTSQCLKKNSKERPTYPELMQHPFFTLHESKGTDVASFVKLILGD
Procedure, shortened: as §1

Lyn(h) = Lyn(h) (Homo sapiens, UniProt P07948)
Procedure, shortened: as §1

CDK1/cyclinB(h) = CDK1/cyclinB(h) (Homo sapiens, UniProt P06493)
Procedure, shortened: as §1

PKBβ(h) = PKBβ(h) (Homo sapiens, UniProt P31751)
Procedure, shortened: as §1

ZAP-70(h) = molecular target: T3, ZAP-70(h) (Homo sapiens, UniProt P43403)
T3 construct: purchased Upstate Cell Signaling Solutions (KinaseProfiler Selectivity Screening Service)
T3 sequence (P43403 1-619): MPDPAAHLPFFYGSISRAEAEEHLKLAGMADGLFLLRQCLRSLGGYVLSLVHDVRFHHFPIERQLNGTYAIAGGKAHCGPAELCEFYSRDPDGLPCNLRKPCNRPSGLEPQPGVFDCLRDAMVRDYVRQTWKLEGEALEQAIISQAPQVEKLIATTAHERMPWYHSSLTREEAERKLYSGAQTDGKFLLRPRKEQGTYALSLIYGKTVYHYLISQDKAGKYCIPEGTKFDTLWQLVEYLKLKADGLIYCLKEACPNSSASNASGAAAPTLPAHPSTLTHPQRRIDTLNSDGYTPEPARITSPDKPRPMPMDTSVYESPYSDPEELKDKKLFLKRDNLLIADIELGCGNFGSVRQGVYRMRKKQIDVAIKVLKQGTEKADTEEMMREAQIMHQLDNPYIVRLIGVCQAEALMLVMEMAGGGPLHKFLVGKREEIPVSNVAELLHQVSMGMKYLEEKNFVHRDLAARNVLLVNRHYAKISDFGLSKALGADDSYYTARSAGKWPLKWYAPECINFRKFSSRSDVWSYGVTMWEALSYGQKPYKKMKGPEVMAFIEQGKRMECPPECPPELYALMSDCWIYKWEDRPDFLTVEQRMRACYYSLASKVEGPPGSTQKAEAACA
Procedure, shortened: as §1

Chain of Lyn(h) (P07948 whole entry): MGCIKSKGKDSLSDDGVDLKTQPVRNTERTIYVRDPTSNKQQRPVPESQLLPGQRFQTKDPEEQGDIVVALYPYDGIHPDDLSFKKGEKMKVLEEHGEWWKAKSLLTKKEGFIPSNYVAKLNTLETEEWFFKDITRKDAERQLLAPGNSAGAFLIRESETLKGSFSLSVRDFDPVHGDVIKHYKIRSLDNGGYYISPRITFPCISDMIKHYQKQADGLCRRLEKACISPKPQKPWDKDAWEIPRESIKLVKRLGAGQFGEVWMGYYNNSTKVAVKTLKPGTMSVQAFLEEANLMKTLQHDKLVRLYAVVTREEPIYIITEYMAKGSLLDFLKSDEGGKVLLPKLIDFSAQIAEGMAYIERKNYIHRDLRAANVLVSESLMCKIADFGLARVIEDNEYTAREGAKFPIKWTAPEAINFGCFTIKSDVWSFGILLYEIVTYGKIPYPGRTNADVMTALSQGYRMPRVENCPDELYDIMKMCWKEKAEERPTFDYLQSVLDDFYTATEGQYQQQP
Chain of CDK1/cyclinB(h) (P06493 whole entry): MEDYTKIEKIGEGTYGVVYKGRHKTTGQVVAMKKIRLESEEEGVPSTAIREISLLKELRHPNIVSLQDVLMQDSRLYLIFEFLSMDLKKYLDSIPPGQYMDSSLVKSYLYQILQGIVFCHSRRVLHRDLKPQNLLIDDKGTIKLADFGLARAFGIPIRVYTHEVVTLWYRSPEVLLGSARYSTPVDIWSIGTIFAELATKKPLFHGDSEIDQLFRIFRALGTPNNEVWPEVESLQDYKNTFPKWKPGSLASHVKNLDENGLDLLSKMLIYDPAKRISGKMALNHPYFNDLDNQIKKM
Chain of CDK1/cyclinB(h) (P14635 whole entry partner): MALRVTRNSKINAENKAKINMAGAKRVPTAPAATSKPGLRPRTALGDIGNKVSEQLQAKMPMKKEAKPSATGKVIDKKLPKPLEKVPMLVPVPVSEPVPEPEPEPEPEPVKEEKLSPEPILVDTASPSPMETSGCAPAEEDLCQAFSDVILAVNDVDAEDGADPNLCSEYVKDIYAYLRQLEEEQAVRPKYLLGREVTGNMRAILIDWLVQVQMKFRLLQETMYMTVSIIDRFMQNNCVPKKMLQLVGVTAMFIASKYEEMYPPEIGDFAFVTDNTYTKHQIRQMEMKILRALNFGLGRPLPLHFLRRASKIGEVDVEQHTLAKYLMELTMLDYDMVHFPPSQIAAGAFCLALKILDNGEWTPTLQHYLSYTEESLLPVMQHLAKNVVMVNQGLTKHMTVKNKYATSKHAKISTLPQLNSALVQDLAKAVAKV
Chain of Lck(h) (P06239 whole entry): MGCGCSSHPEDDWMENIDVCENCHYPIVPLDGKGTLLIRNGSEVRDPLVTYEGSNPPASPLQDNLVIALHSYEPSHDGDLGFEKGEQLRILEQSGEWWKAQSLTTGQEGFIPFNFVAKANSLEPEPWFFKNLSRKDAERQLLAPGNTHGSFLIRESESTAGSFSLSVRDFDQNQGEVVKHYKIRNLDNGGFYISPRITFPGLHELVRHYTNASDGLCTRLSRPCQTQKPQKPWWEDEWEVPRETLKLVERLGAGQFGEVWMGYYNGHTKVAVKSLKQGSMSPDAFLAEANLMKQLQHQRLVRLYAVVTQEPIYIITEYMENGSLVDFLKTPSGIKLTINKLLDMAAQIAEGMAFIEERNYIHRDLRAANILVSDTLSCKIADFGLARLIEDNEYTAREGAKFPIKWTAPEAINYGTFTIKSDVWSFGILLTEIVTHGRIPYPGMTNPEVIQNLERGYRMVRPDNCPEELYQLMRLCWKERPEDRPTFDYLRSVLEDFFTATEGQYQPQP
Chain of MSK1(h) (O75582 whole entry): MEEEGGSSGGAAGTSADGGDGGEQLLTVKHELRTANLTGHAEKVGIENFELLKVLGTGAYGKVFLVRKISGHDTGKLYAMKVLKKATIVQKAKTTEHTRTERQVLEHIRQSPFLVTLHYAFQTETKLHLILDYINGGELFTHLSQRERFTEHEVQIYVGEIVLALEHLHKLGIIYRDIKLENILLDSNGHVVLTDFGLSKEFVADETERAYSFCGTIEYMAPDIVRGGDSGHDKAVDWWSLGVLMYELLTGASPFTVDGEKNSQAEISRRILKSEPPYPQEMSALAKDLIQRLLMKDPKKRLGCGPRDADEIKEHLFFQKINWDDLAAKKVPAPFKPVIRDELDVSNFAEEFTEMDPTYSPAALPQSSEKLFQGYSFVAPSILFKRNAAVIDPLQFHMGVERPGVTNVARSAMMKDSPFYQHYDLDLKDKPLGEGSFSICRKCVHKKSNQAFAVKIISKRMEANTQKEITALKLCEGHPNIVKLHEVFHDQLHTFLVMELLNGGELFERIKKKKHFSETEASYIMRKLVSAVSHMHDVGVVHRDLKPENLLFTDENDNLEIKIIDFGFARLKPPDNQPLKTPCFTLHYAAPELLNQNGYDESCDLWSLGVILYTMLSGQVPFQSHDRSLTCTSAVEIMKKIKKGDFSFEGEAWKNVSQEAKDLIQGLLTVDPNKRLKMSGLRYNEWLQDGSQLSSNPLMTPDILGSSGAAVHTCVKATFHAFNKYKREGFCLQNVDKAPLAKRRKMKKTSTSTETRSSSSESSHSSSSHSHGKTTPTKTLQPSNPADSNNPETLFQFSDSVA
Chain of PKBβ(h) (P31751 whole entry): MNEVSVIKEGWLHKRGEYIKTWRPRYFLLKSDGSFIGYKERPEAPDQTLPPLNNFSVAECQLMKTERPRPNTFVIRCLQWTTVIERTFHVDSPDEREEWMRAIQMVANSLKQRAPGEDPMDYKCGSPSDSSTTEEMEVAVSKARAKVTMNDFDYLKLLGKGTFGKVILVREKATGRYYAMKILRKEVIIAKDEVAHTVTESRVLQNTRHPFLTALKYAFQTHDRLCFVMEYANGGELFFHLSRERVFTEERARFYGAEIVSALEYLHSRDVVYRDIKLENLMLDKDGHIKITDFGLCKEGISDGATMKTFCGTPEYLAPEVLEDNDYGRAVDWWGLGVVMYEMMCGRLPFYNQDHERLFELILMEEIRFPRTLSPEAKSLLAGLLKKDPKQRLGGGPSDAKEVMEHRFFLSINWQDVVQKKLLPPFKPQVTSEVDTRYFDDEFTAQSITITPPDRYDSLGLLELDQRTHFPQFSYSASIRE
Chain of c-RAF(h) (P04049 whole entry): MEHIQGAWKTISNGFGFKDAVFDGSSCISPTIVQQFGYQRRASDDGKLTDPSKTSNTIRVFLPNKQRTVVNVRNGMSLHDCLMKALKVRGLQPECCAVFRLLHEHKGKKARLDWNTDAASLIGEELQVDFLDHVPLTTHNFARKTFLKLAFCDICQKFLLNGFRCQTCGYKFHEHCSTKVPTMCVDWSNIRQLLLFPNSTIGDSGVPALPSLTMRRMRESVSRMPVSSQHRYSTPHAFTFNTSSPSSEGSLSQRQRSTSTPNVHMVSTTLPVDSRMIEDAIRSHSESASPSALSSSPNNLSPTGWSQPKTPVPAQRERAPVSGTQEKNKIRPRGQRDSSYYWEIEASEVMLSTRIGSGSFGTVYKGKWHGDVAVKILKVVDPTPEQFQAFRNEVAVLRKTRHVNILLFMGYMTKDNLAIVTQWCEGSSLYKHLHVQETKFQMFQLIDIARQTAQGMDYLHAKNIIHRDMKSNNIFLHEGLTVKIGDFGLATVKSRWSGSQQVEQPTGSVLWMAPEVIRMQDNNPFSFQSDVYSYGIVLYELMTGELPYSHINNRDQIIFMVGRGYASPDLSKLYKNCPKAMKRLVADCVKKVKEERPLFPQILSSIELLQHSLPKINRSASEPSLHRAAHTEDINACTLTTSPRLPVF

| Activity at Protein Kinase Assays (% of control), Tie2(h) (Tie2(h)) | Activity at Protein Kinase Assays (% of control), CDK2/cyclinE(h) (CDK2/cyclinE(h)) | Activity at Protein Kinase Assays (% of control), MSK1(h) (MSK1(h)) | Activity at Protein Kinase Assays (% of control), c-RAF(h) (c-RAF(h)) | Activity at Protein Kinase Assays (% of control), SGK(h) (SGK(h)) | Activity at Protein Kinase Assays (% of control), Lck(h) (Lck(h)) | Activity at Protein Kinase Assays (% of control), PKCγ(h) (PKCγ(h)) | Activity at Protein Kinase Assays (% of control), MKK6(h) (MKK6(h)) | Activity at Protein Kinase Assays (% of control), Lyn(h) (Lyn(h)) | Activity at Protein Kinase Assays (% of control), CDK1/cyclinB(h) (CDK1/cyclinB(h)) | Activity at Protein Kinase Assays (% of control), PKBβ(h) (PKBβ(h)) | Activity at Protein Kinase Assays (% of control), ZAP-70(h) (ZAP-70(h)) | Structure (SMILES) |
| --- | --- | --- | --- | --- | --- | --- | --- | --- | --- | --- | --- | --- |
| 110 % of control | 54 % of control | 36 % of control | 103 % of control | 93 % of control | 96 % of control | 91 % of control | 102 % of control | 107 % of control | 78 % of control | 86 % of control | 113 % of control | CN(C)c1nc2ccc1CCCCn1cc(c3ccccc31)C1=C(C(=O)NC1=O)c1cn(c3ccccc13)CCC2 [Cpd 1, 31-(dimethylamino)-5,15,25,32-tetraazaheptacyclo[28.2.2.1^5,12.1^18,25.0^6,11.0^13,17.0^19,24]hexatriaconta-1(32),6,8,10,12(36),13(17),18(35),19,21,23,30,33-dodecaene-14,16-dione] |
| 109 % of control | 84 % of control | 58 % of control | 87 % of control | 105 % of control | 100 % of control | 107 % of control | 86 % of control | 76 % of control | 98 % of control | 118 % of control | 103 % of control | CN(C)c1cc2cc(n1)CCCn1cc(c3ccccc31)C1=C(C(=O)NC1=O)c1cn(c3ccccc13)CCC2 [Cpd 2, 20-(dimethylamino)-4,14,19,26-tetraazaheptacyclo[24.6.1.1^7,14.1^18,22.0^2,6.0^8,13.0^27,32]pentatriaconta-1(33),2(6),7(35),8,10,12,18(34),19,21,27,29,31-dodecaene-3,5-dione] |
| 96 % of control | 88 % of control | 38 % of control | 92 % of control | 109 % of control | 99 % of control | 99 % of control | 91 % of control | 87 % of control | 80 % of control | 104 % of control | 115 % of control | O=C1NC(=O)C2=C1c1cn(c3ccccc13)CCCc1cc(nc(N3CCCC3)c1)CCCn1cc2c2ccccc21 [Cpd 6, 20-pyrrolidin-1-yl-4,14,19,26-tetraazaheptacyclo[24.6.1.1^7,14.1^18,22.0^2,6.0^8,13.0^27,32]pentatriaconta-1(33),2(6),7(35),8,10,12,18(34),19,21,27,29,31-dodecaene-3,5-dione] |
| 107 % of control | 88 % of control | 104 % of control | 85 % of control | 93 % of control | 90 % of control | 102 % of control | 85 % of control | 78 % of control | 98 % of control | 102 % of control | 121 % of control | O=C1NC(=O)C2=C1c1cn(c3ccccc13)CCCc1ccc(c(N3CCCC3)n1)CCCn1cc2c2ccccc21 [Cpd 7, 31-pyrrolidin-1-yl-5,15,25,30-tetraazaheptacyclo[27.2.2.1^5,12.1^18,25.0^6,11.0^13,17.0^19,24]pentatriaconta-1(31),6,8,10,12(35),13(17),18(34),19,21,23,29,32-dodecaene-14,16-dione] |
